Like-named read-outs stand apart in the source and are kept apart here.
Test system: panel of nearly 500 cancer cell lines
Experiment: Cancer Cell Line Encyclopedia profiling, 3-day CellTiter-Glo
Type: cell-based
Conditions: read-out: IC50

What does the source list for CC(=O)c1c(C)c2cnc(Nc3ccc(N4CCNCC4)cn3)nc2n(C2CCCC2)c1=O [Palbociblib]?
IC50 (loximvi (skin)): > 8 µM; IC50 (ls123 (large_intestine)): > 8 µM; IC50 (ls513 (large_intestine)): 4.53 µM; IC50 (lu99 (lung)): 2.55 µM; IC50 (ludlu1 (lung)): > 8 µM; IC50 (m059j (central_nervous_system)): > 8 µM; IC50 (malme3m (skin)): > 8 µM; IC50 (mc116 (haematopoietic_and_lymphoid_tissue)): 8 µM; IC50 (mcas (ovary)): > 8 µM; IC50 (mcf7 (breast)): > 8 µM; IC50 (mdamb157 (breast)): > 8 µM; IC50 (mdamb175vii (breast)): > 8 µM; IC50 (mdamb415 (breast)): 6.74 µM; IC50 (mdamb436 (breast)): > 8 µM; IC50 (mdamb453 (breast)): > 8 µM; IC50 (mdamb468 (breast)): > 8 µM; IC50 (meg01 (haematopoietic_and_lymphoid_tissue)): > 8 µM; IC50 (melho (skin)): > 8 µM; IC50 (messa (soft_tissue)): > 8 µM; IC50 (mfe280 (endometrium)): > 8 µM; IC50 (mg63 (bone)): > 8 µM; IC50 (miapaca2 (pancreas)): > 8 µM; IC50 (mino (haematopoietic_and_lymphoid_tissue)): 1.4 µM; IC50 (mj (haematopoietic_and_lymphoid_tissue)): 4.62 µM; IC50 (mkn7 (stomach)): > 8 µM; IC50 (mkn45 (stomach)): > 8 µM; IC50 (mkn74 (stomach)): > 8 µM; IC50 (moggccm (central_nervous_system)): > 8 µM; IC50 (mpp89 (pleura)): > 8 µM; IC50 (msto211h (pleura)): 5.5 µM; IC50 (ncih23 (lung)): > 8 µM; IC50 (ncih28 (pleura)): 6.05 µM; IC50 (ncih211 (lung)): > 8 µM; IC50 (ncih226 (lung)): > 8 µM; IC50 (ncih322 (lung)): > 8 µM; IC50 (ncih358 (lung)): > 8 µM; IC50 (ncih441 (lung)): > 8 µM; IC50 (ncih520 (lung)): > 8 µM; IC50 (ncih522 (lung)): > 8 µM; IC50 (ncih647 (lung)): > 8 µM; IC50 (ncih650 (lung)): > 8 µM; IC50 (ncih661 (lung)): > 8 µM; IC50 (ncih727 (lung)): > 8 µM; IC50 (ncih747 (large_intestine)): > 8 µM; IC50 (ncih810 (lung)): > 8 µM; IC50 (ncih1048 (lung)): > 8 µM; IC50 (ncih1092 (lung)): > 8 µM; IC50 (ncih1184 (lung)): > 8 µM; IC50 (ncih1341 (lung)): > 8 µM; IC50 (ncih1355 (lung)): > 8 µM; IC50 (ncih1373 (lung)): > 8 µM; IC50 (ncih1563 (lung)): > 8 µM; IC50 (ncih1568 (lung)): > 8 µM; IC50 (ncih1573 (lung)): > 8 µM; IC50 (ncih1581 (lung)): > 8 µM; IC50 (ncih1648 (lung)): > 8 µM; IC50 (ncih1650 (lung)): > 8 µM; IC50 (ncih1651 (lung)): > 8 µM; IC50 (ncih1666 (lung)): > 8 µM; IC50 (ncih1693 (lung)): > 8 µM; IC50 (ncih1694 (lung)): > 8 µM; IC50 (ncih1792 (lung)): > 8 µM; IC50 (ncih1793 (lung)): 2.04 µM; IC50 (ncih1869 (lung)): > 8 µM; IC50 (ncih1915 (lung)): > 8 µM; IC50 (ncih1944 (lung)): 4.49 µM; IC50 (ncih1975 (lung)): > 8 µM; IC50 (ncih2009 (lung)): > 8 µM; IC50 (ncih2023 (lung)): > 8 µM; IC50 (ncih2030 (lung)): > 8 µM; IC50 (ncih2052 (pleura)): > 8 µM; IC50 (ncih2085 (lung)): > 8 µM; IC50 (ncih2087 (lung)): > 8 µM; IC50 (ncih2122 (lung)): > 8 µM; IC50 (ncih2170 (lung)): > 8 µM; IC50 (ncih2172 (lung)): > 8 µM; IC50 (ncih2228 (lung)): > 8 µM; IC50 (ncih2444 (lung)): 6.71 µM; IC50 (ncih2452 (pleura)): > 8 µM; IC50 (ncih3255 (lung)): > 8 µM; IC50 (ncin87 (stomach)): > 8 µM; IC50 (nihovcar3 (ovary)): > 8 µM; IC50 (nugc3 (stomach)): > 8 µM; IC50 (nugc4 (stomach)): 1.61 µM; IC50 (oc314 (ovary)): > 8 µM; IC50 (oc315 (ovary)): > 8 µM; IC50 (oc316 (ovary)): > 8 µM; IC50 (ociaml2 (haematopoietic_and_lymphoid_tissue)): 1.53 µM; IC50 (ocum1 (stomach)): > 8 µM; IC50 (oe21 (oesophagus)): 4.75 µM; IC50 (oe33 (oesophagus)): > 8 µM; IC50 (oncodg1 (ovary)): > 8 µM; IC50 (ons76 (central_nervous_system)): > 8 µM; IC50 (ov90 (ovary)): > 8 µM; IC50 (ovcar4 (ovary)): > 8 µM; IC50 (ovcar8 (ovary)): > 8 µM; IC50 (ovmana (ovary)): > 8 µM; IC50 (ovsaho (ovary)): > 8 µM; IC50 (ovtoko (ovary)): > 8 µM; IC50 (p3hr1 (haematopoietic_and_lymphoid_tissue)): 7.56 µM; IC50 (p31fuj (haematopoietic_and_lymphoid_tissue)): > 8 µM; IC50 (panc0203 (pancreas)): > 8 µM; IC50 (panc0327 (pancreas)): > 8 µM; IC50 (panc0403 (pancreas)): > 8 µM; IC50 (panc1005 (pancreas)): > 8 µM; IC50 (pc3 (prostate)): > 8 µM; IC50 (pfeiffer (haematopoietic_and_lymphoid_tissue)): 6.95 µM; IC50 (pk1 (pancreas)): > 8 µM; IC50 (pk59 (pancreas)): > 8 µM; IC50 (pk45h (pancreas)): > 8 µM; IC50 (pl45 (pancreas)): > 8 µM; IC50 (plcprf5 (liver)): > 8 µM; IC50 (raji (haematopoietic_and_lymphoid_tissue)): > 8 µM; IC50 (rd (soft_tissue)): > 8 µM; IC50 (reh (haematopoietic_and_lymphoid_tissue)): 5.91 µM; IC50 (rerfgc1b (stomach)): > 8 µM; IC50 (rerflcai (lung)): > 8 µM; IC50 (rerflcms (lung)): > 8 µM; IC50 (rkn (soft_tissue)): > 8 µM; IC50 (rko (large_intestine)): > 8 µM; IC50 (rl952 (endometrium)): > 8 µM; IC50 (rt4 (urinary_tract)): > 8 µM; IC50 (rt112 (urinary_tract)): > 8 µM; IC50 (rvh421 (skin)): > 8 µM; IC50 (saos2 (bone)): > 8 µM; IC50 (sbc5 (lung)): > 8 µM; IC50 (scaber (urinary_tract)): > 8 µM; IC50 (scc25 (upper_aerodigestive_tract)): > 8 µM; IC50 (sf126 (central_nervous_system)): > 8 µM; IC50 (sf295 (central_nervous_system)): > 8 µM; IC50 (sf8657 (skin)): > 8 µM; IC50 (sh10tc (stomach)): > 8 µM; IC50 (shp77 (lung)): > 8 µM; IC50 (sjrh30 (soft_tissue)): > 8 µM; IC50 (sjsa1 (bone)): > 8 µM; IC50 (skbr3 (breast)): > 8 µM; IC50 (skco1 (large_intestine)): > 8 µM; IC50 (skes1 (bone)): > 8 µM; IC50 (skhep1 (liver)): > 8 µM; IC50 (sklu1 (lung)): > 8 µM; IC50 (skmel2 (skin)): > 8 µM; IC50 (skmel5 (skin)): > 8 µM; IC50 (skmel24 (skin)): > 8 µM; IC50 (skmel30 (skin)): > 8 µM; IC50 (skmel31 (skin)): > 8 µM; IC50 (skmm2 (haematopoietic_and_lymphoid_tissue)): > 8 µM; IC50 (sknas (autonomic_ganglia)): > 8 µM; IC50 (sknbe2 (autonomic_ganglia)): 4.99 µM; IC50 (skndz (autonomic_ganglia)): > 8 µM; IC50 (sknsh (autonomic_ganglia)): > 8 µM; IC50 (skov3 (ovary)): > 8 µM; IC50 (sngm (endometrium)): > 8 µM; IC50 (snu1 (stomach)): 5.73 µM; IC50 (snu16 (stomach)): > 8 µM; IC50 (snu182 (liver)): > 8 µM; IC50 (snu423 (liver)): > 8 µM; IC50 (snu449 (liver)): > 8 µM; IC50 (snuc2a (large_intestine)): > 8 µM; IC50 (snuc2b (large_intestine)): > 8 µM; IC50 (su8686 (pancreas)): > 8 µM; IC50 (sudhl8 (haematopoietic_and_lymphoid_tissue)): 1.21 µM; IC50 (sudhl10 (haematopoietic_and_lymphoid_tissue)): 3.42 µM; IC50 (suit2 (pancreas)): > 8 µM; IC50 (supm2 (haematopoietic_and_lymphoid_tissue)): 5.92 µM; IC50 (supt1 (haematopoietic_and_lymphoid_tissue)): > 8 µM; IC50 (sw48 (large_intestine)): > 8 µM; IC50 (sw403 (large_intestine)): > 8 µM; IC50 (sw480 (large_intestine)): > 8 µM; IC50 (sw579 (thyroid)): > 8 µM; IC50 (sw620 (large_intestine)): > 8 µM; IC50 (sw780 (urinary_tract)): 1.64 µM; IC50 (sw900 (lung)): > 8 µM; IC50 (sw1271 (lung)): > 8 µM; IC50 (sw1353 (bone)): > 8 µM; IC50 (sw1417 (large_intestine)): > 8 µM; IC50 (sw1990 (pancreas)): > 8 µM; IC50 (t3m10 (lung)): > 8 µM; IC50 (t24 (urinary_tract)): > 8 µM; IC50 (t84 (large_intestine)): > 8 µM; IC50 (t98g (central_nervous_system)): > 8 µM; IC50 (t47d (breast)): > 8 µM; IC50 (tc71 (bone)): > 8 µM; IC50 (tccsup (urinary_tract)): > 8 µM; IC50 (te9 (oesophagus)): > 8 µM; IC50 (te617t (soft_tissue)): 1.01 µM; IC50 (ten (endometrium)): > 8 µM; IC50 (toledo (haematopoietic_and_lymphoid_tissue)): > 8 µM; IC50 (tov21g (ovary)): > 8 µM; IC50 (tov112d (ovary)): > 8 µM
